Results published in PubChem BioAssay (NCI).
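The concentration for 50% growth inhibition is given as GI50. Definition used: TGI = concentration required for complete inhibition of growth.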

Key:
Test in all cases: NCI-60 cell line screen, 384-well format
MDA-MB-231 breast = test system: MDA-MB-231 breast
NCI-H226 lung = test system: NCI-H226 lung
HCC-2998 colon = test system: HCC-2998 colon
SF-539 CNS = test system: SF-539 CNS
HT29 colon = test system: HT29 colon
EKVX NSCLC = test system: EKVX NSCLC
U251 glioblastoma = test system: U251 glioblastoma
OVCAR-5 ovarian = test system: OVCAR-5 ovarian
T-47D breast = test system: T-47D breast
SK-MEL-5 melanoma = test system: SK-MEL-5 melanoma
NCI-H23 lung = test system: NCI-H23 lung
MDA-MB-468 breast = test system: MDA-MB-468 breast
CAKI-1 renal = test system: CAKI-1 renal
NCI-H522 lung = test system: NCI-H522 lung
CCRF-CEM leukemia = test system: CCRF-CEM leukemia
SF-268 CNS = test system: SF-268 CNS
OVCAR-3 ovarian = test system: OVCAR-3 ovarian
SNB-75 CNS = test system: SNB-75 CNS
HL-60(TB) leukemia = test system: HL-60(TB) leukemia
SF-295 CNS = test system: SF-295 CNS
HCT-116 colon = test system: HCT-116 colon
UACC-62 melanoma = test system: UACC-62 melanoma
UO-31 renal = test system: UO-31 renal
SR leukemia = test system: SR leukemia
OVCAR-8 ovarian = test system: OVCAR-8 ovarian
M14 melanoma = test system: M14 melanoma
MCF7 breast = test system: MCF7 breast
786-0 renal = test system: 786-0 renal
TK-10 renal = test system: TK-10 renal
RPMI-8226 leukemia = test system: RPMI-8226 leukemia
ACHN renal = test system: ACHN renal
NCI-H322M lung = test system: NCI-H322M lung
HOP-92 NSCLC = test system: HOP-92 NSCLC
LOX IMVI melanoma = test system: LOX IMVI melanoma
MDA-MB-435 melanoma = test system: MDA-MB-435 melanoma
PC-3 prostate = test system: PC-3 prostate
HS 578T breast = test system: HS 578T breast
DU-145 prostate = test system: DU-145 prostate
K-562 leukemia = test system: K-562 leukemia
SK-OV-3 ovarian = test system: SK-OV-3 ovarian
A498 renal = test system: A498 renal
A549 NSCLC = test system: A549 NSCLC
SN12C renal = test system: SN12C renal
KM12 colon = test system: KM12 colon
SK-MEL-2 melanoma = test system: SK-MEL-2 melanoma
MOLT-4 leukemia = test system: MOLT-4 leukemia
NCI/ADR-RES ovarian = test system: NCI/ADR-RES ovarian

C[C@@H](O)[C@H](NC(=O)N[C@@H](CC(N)=O)c1nc([C@@H](N)CO)no1)C(=O)O gave a GI50 (MDA-MB-231 breast) greater than 100 µM, a TGI (MDA-MB-231 breast) greater than 100 µM and a GI50 (NCI-H226 lung) greater than 100 µM. For the same molecule, the TGI (NCI-H226 lung) was greater than 100 µM, the GI50 (HCC-2998 colon) was greater than 100 µM and the TGI (HCC-2998 colon) was greater than 100 µM. It also gave a GI50 (SF-539 CNS) greater than 100 µM, a TGI (SF-539 CNS) greater than 100 µM and a GI50 (HT29 colon) greater than 100 µM. For the same molecule, the TGI (HT29 colon) was greater than 100 µM, the GI50 (EKVX NSCLC) was greater than 100 µM and the TGI (EKVX NSCLC) was greater than 100 µM. It also gave a GI50 (U251 glioblastoma) greater than 100 µM, a TGI (U251 glioblastoma) greater than 100 µM and a GI50 (OVCAR-5 ovarian) greater than 100 µM. The TGI (OVCAR-5 ovarian) was greater than 100 µM, the GI50 (T-47D breast) was greater than 100 µM and the TGI (T-47D breast) was greater than 100 µM. The GI50 (SK-MEL-5 melanoma) was greater than 100 µM, the TGI (SK-MEL-5 melanoma) was greater than 100 µM and the GI50 (NCI-H23 lung) was greater than 100 µM. For the same molecule, the TGI (NCI-H23 lung) was greater than 100 µM, the GI50 (MDA-MB-468 breast) was greater than 100 µM and the TGI (MDA-MB-468 breast) was greater than 100 µM. The GI50 (CAKI-1 renal) was greater than 100 µM, the TGI (CAKI-1 renal) was greater than 100 µM and the GI50 (NCI-H522 lung) was greater than 100 µM. It also gave a TGI (NCI-H522 lung) greater than 100 µM, a GI50 (CCRF-CEM leukemia) greater than 100 µM and a TGI (CCRF-CEM leukemia) greater than 100 µM. It also gave a GI50 (SF-268 CNS) greater than 100 µM, a TGI (SF-268 CNS) greater than 100 µM and a GI50 (OVCAR-3 ovarian) greater than 100 µM. The TGI (OVCAR-3 ovarian) was greater than 100 µM, the GI50 (SNB-75 CNS) was greater than 100 µM and the TGI (SNB-75 CNS) was greater than 100 µM. For the same molecule, the GI50 (HL-60(TB) leukemia) was greater than 100 µM, the TGI (HL-60(TB) leukemia) was greater than 100 µM and the GI50 (SF-295 CNS) was greater than 100 µM. It also gave a TGI (SF-295 CNS) greater than 100 µM, a GI50 (HCT-116 colon) greater than 100 µM and a TGI (HCT-116 colon) greater than 100 µM. For the same molecule, the GI50 (UACC-62 melanoma) was greater than 100 µM, the TGI (UACC-62 melanoma) was greater than 100 µM and the GI50 (UO-31 renal) was greater than 100 µM. It also gave a TGI (UO-31 renal) greater than 100 µM, a GI50 (SR leukemia) greater than 100 µM and a TGI (SR leukemia) greater than 100 µM. It also gave a GI50 (OVCAR-8 ovarian) greater than 100 µM, a TGI (OVCAR-8 ovarian) greater than 100 µM and a GI50 (M14 melanoma) greater than 100 µM. The TGI (M14 melanoma) was greater than 100 µM, the GI50 (MCF7 breast) was greater than 100 µM and the TGI (MCF7 breast) was greater than 100 µM. For the same molecule, the GI50 ([…]-0 renal) was greater than 100 µM, the TGI (786-0 renal) was greater than 100 µM and the GI50 (TK-10 renal) was greater than 100 µM. It also gave a TGI (TK-10 renal) greater than 100 µM, a GI50 (RPMI-8226 leukemia) greater than 100 µM and a TGI (RPMI-8226 leukemia) greater than 100 µM. It also gave a GI50 (ACHN renal) greater than 100 µM, a TGI (ACHN renal) greater than 100 µM and a GI50 (NCI-H322M lung) greater than 100 µM. It also gave a TGI (NCI-H322M lung) greater than 100 µM, a GI50 (HOP-92 NSCLC) greater than 100 µM and a TGI (HOP-92 NSCLC) greater than 100 µM. It also gave a GI50 (LOX IMVI melanoma) greater than 100 µM, a TGI (LOX IMVI melanoma) greater than 100 µM and a GI50 (MDA-MB-435 melanoma) greater than 100 µM. It also gave a TGI (MDA-MB-435 melanoma) greater than 100 µM, a GI50 (PC-3 prostate) greater than 100 µM and a TGI (PC-3 prostate) greater than 100 µM. For the same molecule, the GI50 (HS 578T breast) was greater than 100 µM, the TGI (HS 578T breast) was greater than 100 µM and the GI50 (DU-145 prostate) was greater than 100 µM. It also gave a TGI (DU-145 prostate) greater than 100 µM, a GI50 (K-562 leukemia) greater than 100 µM and a TGI (K-562 leukemia) greater than 100 µM. The GI50 (SK-OV-3 ovarian) was greater than 100 µM, the TGI (SK-OV-3 ovarian) was greater than 100 µM and the GI50 (A498 renal) was greater than 100 µM. For the same molecule, the TGI (A498 renal) was greater than 100 µM, the GI50 (A549 NSCLC) was greater than 100 µM and the TGI (A549 NSCLC) was greater than 100 µM. For the same molecule, the GI50 (SN12C renal) was greater than 100 µM, the TGI (SN12C renal) was greater than 100 µM and the GI50 (KM12 colon) was greater than 100 µM. The TGI (KM12 colon) was greater than 100 µM, the GI50 (SK-MEL-2 melanoma) was greater than 100 µM and the TGI (SK-MEL-2 melanoma) was greater than 100 µM. For the same molecule, the GI50 (MOLT-4 leukemia) was greater than 100 µM, the TGI (MOLT-4 leukemia) was greater than 100 µM and the GI50 (NCI/ADR-RES ovarian) was greater than 100 µM. It also gave a TGI (NCI/ADR-RES ovarian) greater than 100 µM.
